Data set [1] is described as follows: Rx100 salt screening (solid formation, XRPD wet/dry, filterability, exposure to RH > 90%). The conditions noted are these: for Filterability / Crystallinity / Polymorphic behavior: Rx100 salt formed with the named base; for Crystallinity / Polymorphic behavior: XRPD; for Solid upon evaporation (Y/N) / All solvents were evaporated to get a gel: stage 3, 1.05 eq, L-lysine 2.00 eq; for Solid upon evaporation (Y/N): 35 mg Rx100 free acid + base (label = base); for All solvents were evaporated to get a gel: label = base, nature/filterability of the solid; for ON PLATE / XRPD, wet: stage 2 round 2, Rx100 free acid + 1 eq base (label = base). As to the method: We designed a complex and unconventional screening regime to screen for Rx100 crystalline salts. […] The screening regime is described as follows.
Rx100.FA in the form of a viscous liquid and eighteen counter ions were used as starting materials. These counter ions are listed and numbered in Table 4. The numbers will be used for grouping the resulting solids. The screening was performed in three stages.
Stage one (1) included screening 11 counter ions: sodium hydroxide, ammonium hydroxide, ethylenediamine, diethylamine, tromethamine (Tris), hydroxyethyl morpholine, benzathine, dimethylamino ethanol, L-Arginine, L-Lysine, L-Histidine. […] In stage 1, we performed three rounds of experiment.
In the first round of experiment, four (4) solvent systems, i.e., isopropyl alcohol (IPA), diethyl ether (DEE), IPA:water (a mixture at a volume ratio of 95:5) and tetrahydrofuran (THF), were used. Thus in this first round of screening, 44 individual base-acid reactions were conducted in 44 vials.
First, Rx100.FA and each of the bases were mixed in a vial. […] In each of the 44 vials, 211.1 μL of the prepared liquid, which was equivalent to about 35 mg of Rx100.FA, was first dispensed. Then, one equivalent (molar) of each of the 11 bases was dispensed in its corresponding vial. For example, the base sodium hydroxide was added to vials 1, 12, 23 and 34. Similarly, L-histidine was added to vials 11, 22, 33 and 44. Observations were recorded upon addition of the bases in to Rx100.FA.
Second, the solvent in each mixture was depleted. All vials containing the mixtures of Rx100.FA and each of the bases were left under moderate vacuum and nitrogen bleed at room temperature overnight to evaporate the solvent. The vials were then kept under full vacuum for about an hour to make sure the solvents (ethanol and water) are evaporated. Observations on formation of solid upon evaporation were recorded.
Third, solvents were added in each vial to induce solid formation. In each vial, a stir bar and one of the four selected solvents (each 5 volumes with respect to the Rx100.FA) were added. The vials were then capped. IPA was added to the first set of 11 vials (1-11), DEE added to the second set of 11 vials (12-22), IPA:water added to the third set of 11 vials (23-33), and THF added to the fourth set of 11 vials (34-44). The vials were left at room temperature while stirring for at least 5 hours. Observations were recorded.
The first set of XRPD analyses were recorded as “wet” samples. The solids were dried under vacuum for 1 hour and at room temperature followed by XRPD as “dry” sample. The dry solid was then exposed to relative humidity of more than 90% overnight followed by XRPD analysis. For XRPD naming, a number and a letter were used. The number refers to the counter ion and the letter refers to the chronological discovered XRPD pattern of that particular salt.
In the second round of experiment of stage one, another four (4) solvent systems, i.e., methanol (MeOH), tert-Butyl methyl ether (tBME), ethyl acetate and toluene, were used in the same 44 vials as used in the first round experiment. The solvents in all 44 vials from the first round were evaporated to dryness under vacuum and nitrogen bleed. The 4 new solvents were then added into the vials. Methanol was added to the first set of 11 vials (1-11), tBME added to the second set of 11 vials (12-22), Ethyl acetate added to the third set of 11 vials (23-33), and Toluene added to the fourth set of 11 vials (34-44). The same procedure as in the first round of experiment was followed for these new solvents and samples were taken for XRPD analysis.
In the third round of experiment, effect of base equivalence was assessed. […] After addition of the extra base, the previous solvent was evaporated and new solvents added.

For the next data set, the system named is Beagle dogs. The data set is described as follows: Single-dose subcutaneous toxicity in dogs. The following applies: 1 mL/kg of a 6-mg/mL concentration of L-lysine; same animals. The data set is classed as in vivo. From the text: One group of one male and one female Beagle dogs received single escalating subcutaneous doses of Rx100.Lysine at 10 and 1 (female)/1.52 (male) mg/kg. […] Parameters evaluated included clinical signs, body weight, and gross pathology. The male and female dog survived until scheduled necropsy on Day 15. Administration of Rx100 had no effect on body weight or general health of the animals. Noteworthy clinical observations were confined to skin and behavior effects. Both animals scratched at the dose site, likely contributing to observations of redness at the dose site. Swelling and a thickened/raised area were also observed during the observation period. Clinical observations were sufficient to warrant the injection of diphenhydramine. […] Following injection of the L-lysine component of the formulation at an independent site, redness, scratching, or swelling was not seen.

Data set [2] is described as follows: Short term (24 hour) slurry tests, XRPD of wet and dried solids. The conditions noted are these: 24 hour slurry; Water; one cell for 25° C. and 50° C.; starting form A. The data set is classed as physicochemical. As to the method: Second, short term slurry tests were performed. Rx100.L-Lysine salt was slurried for a minimum of 24 hours in 15 different solvent systems at two different temperatures (25 and 50° C.) in an attempt to provide information for crystallization experiments and design of polymorph screening experiments. A 48 position Chemglass reaction block was used for heating and stirring the slurries which were in 2 mL HPLC vials. After the due time, vials were centrifuged and the wet solids were used for X-ray diffraction. […]

A short description of data set [3]: Characterization of scaled-up Rx100.L-Lysine salt (XRPD, DSC, TGA, 1H NMR, Karl Fischer, optical microscopy). It is filed as physicochemical. The following applies: scaled-up lot 1980-18-1. As to the method:
The Rx100.L-Lysine salts were dried overnight under vacuum at 35° C. and then characterized by XRPD, DSC, TGA, ^1HNMR, Karl Fischer (KF), optical microscopy and moisture sorption assays.
Ratio of Rx-100 to L-Lysine in the salt was calculated based on the ^1HNMR integration ratio of set-A protons to set-B protons of the salt. Set-A protons are from Rx-100 part of the molecule and set-B protons are from L-Lysine part of the molecule. These two set of protons were selected because they are very well separated from rest of the protons in the ^1HNMR of the molecule. As shown in the molecular scheme in FIG. 39, set-A protons correspond to two olefinic protons of Rx100 and appear at […] in the ^1H NMR. In contrast, set-B protons correspond to methylene of lysine part and appear at […]. Comparison of ^1H NMR integration values for set-A and set-B protons indicates the ratio of Rx100 to lysine as 1:1.5.
The exhibition of birefringence observed by optical microscopy confirmed the crystallinity observed by XRPD

Data set [4] in a line: Gravimetric moisture sorption analysis, with XRPD afterwards. The data set is classed as physicochemical. The conditions noted are these: lot 1980-18-1; 95% RH; reversible. As to the method:
Moisture sorption analysis of the Rx100.L-Lysine salt was performed by equilibrating the sample at 25° C. and 50% RH to simulate ambient lab conditions. Humidity then decreased to 0% RH, increased from 0 to 95% RH, reduced from 95 to 0% RH, increased from 0 to 95% RH and then decreased from 95 to 50% RH.

Data set [5] concerns the target T1, LPA2 receptors from the mouse (Mus musculus, UniProt Q9JL06).
T1 construct: expressed in transfected cells
The data set is described as follows: Calcium-mobilization assay (FURA-2), mouse LPA2. The data set is classed as cell-based. The conditions noted are these: LPA2 DKO MEF, mouse, mean. As to the method:
(§1) We investigated structure-activity relationships across species, LPAR subtypes and between Rx100 and two known process impurities encountered in manufacture: Rx103 (‘E’ isomer) and Rx200 (oleyl phosphate and impurity, which can be an Rx100 degradant along with oleyl alcohol). Rx100, Rx103, Rx200 and native LPA were investigated at different human LPAR subtypes. In addition, the activity of these compounds was evaluated at LPA2 receptors from the rhesus, rat and mouse species. Human LPA1/2/3 subtypes were transfected into mouse embryonic fibroblasts (MEF) or rat hepatoma cells (RH7777)—both of which are normally non-responsive or null to LPA. Human LPA4 was transfected into Chinese hamster ovary (CHO) cells and LPA5 into the B103 neuroblastoma cell line. […] The B103 rat neuroblastoma cell line is endogenously nonresponsive to LPA but expresses heterologous LPA5 receptors well. […] LPAR activation elicits a G-protein-mediated transient rise in intracellular calcium level that is proportional to the concentration of LPA applied. The intracellular calcium level was quantified by the calcium-selective fluorescent indicator FURA-2 (e.g., increased intracellular calcium surge=increased fluorescence).

The subject of another data set is Control CHO. The experiment in a line: Calcium-mobilization assay, untransfected Control CHO cells. It is filed as cell-based, Chinese hamster. The conditions noted are these: Control CHO (untransfected; endogenously expresses LPA1). As to the method: as §1
Data set [6] deals with LPA2 receptors from the rat (Rattus norvegicus, UniProt A0ABK0LT65). The experiment in a line: Calcium-mobilization assay (FURA-2), rat LPA2. The data set is classed as cell-based. The following applies: LPA2 DKO MEF, rat, mean. As to the method: as §1
Chain of LPA2 receptors from the rat (A0ABK0LT65 1-348): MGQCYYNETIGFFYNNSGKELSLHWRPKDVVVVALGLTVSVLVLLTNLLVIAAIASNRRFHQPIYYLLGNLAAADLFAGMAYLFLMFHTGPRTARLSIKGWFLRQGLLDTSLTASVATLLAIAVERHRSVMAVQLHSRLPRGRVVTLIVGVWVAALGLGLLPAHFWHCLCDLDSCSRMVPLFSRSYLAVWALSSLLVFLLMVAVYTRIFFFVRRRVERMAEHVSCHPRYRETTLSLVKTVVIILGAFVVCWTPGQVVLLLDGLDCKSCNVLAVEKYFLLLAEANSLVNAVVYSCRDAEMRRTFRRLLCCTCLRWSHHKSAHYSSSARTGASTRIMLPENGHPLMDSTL
A further data set concerns the target T2, Human LPA1 (Homo sapiens, UniProt Q92633).
T2 construct: expressed in transfected cells; host or cells: mouse embryonic fibroblasts (MEF)
The experiment in a line: Calcium-mobilization assay (FURA-2), human LPA1 transfected cells. It is filed as cell-based. The following applies: mean; for EC50: read-out: EC50. As to the method: as §1

Data set [7] addresses LPA2 receptors from the rhesus (Macaca mulatta, UniProt I2CXV3). The data set is described as follows: Calcium-mobilization assay (FURA-2), rhesus LPA2. The data set is classed as cell-based. The conditions noted are these: LPA2 DKO MEF, rhesus, mean. As to the method: as §1

Read-outs that look alike come from different tables or passages of the source.

T2 sequence (Q92633 whole entry): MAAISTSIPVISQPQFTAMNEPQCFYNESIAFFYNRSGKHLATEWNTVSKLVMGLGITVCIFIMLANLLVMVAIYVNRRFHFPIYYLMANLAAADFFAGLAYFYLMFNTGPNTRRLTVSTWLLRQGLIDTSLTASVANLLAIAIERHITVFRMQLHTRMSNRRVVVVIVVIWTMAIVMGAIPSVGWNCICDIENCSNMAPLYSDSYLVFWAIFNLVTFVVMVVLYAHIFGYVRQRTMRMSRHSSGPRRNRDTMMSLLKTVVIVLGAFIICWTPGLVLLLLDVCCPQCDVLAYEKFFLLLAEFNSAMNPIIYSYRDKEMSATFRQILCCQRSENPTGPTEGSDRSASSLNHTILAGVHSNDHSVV
Chain of LPA2 receptors from the rhesus (I2CXV3 1-351): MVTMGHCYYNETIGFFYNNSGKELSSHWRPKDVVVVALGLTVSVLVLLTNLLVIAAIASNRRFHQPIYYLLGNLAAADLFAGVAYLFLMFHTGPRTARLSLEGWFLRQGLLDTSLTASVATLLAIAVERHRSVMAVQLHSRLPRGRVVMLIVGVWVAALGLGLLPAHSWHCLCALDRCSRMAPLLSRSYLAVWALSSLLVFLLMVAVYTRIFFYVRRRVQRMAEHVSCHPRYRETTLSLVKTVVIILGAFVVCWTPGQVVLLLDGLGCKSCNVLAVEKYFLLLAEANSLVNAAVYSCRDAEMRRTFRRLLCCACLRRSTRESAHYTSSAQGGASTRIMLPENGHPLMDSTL
T1 sequence (Q9JL06 whole entry): as the sequence (A0ABK0LT65 1-348) above, with V153A, V189A, F211Y, T310M, H316S, H321R, S324A, R327Q, H341R counted along it

Take `NCCCC[C@@H](N)C(=O)O` [D-Lysine]: in data set [1], the Filterability entry was “no”, the Crystallinity entry is recorded as “yes”, the Polymorphic behavior result is “Polymorphic on XRPD” and the “Solid upon evaporation (Y/N)” value is listed as “Gel”. Moreover, the “All solvents were evaporated to get a gel” value (from here on “All solvents were evaporated”) in [1] (solvent MeOH:Water [9:1]) was “Greasy”. Also, the “All solvents were evaporated” value in data set [1] (solvent MeOH) is listed as “Greasy”.

As to `[K+].[OH-]` [KOH], the “ON PLATE” value is reported as “Greasy” in [1] (Ethyl acetate) and “Pasty” in data set [1] (IPA:water (1:1)).

Turning to `NCCCC[C@H](N)C(=O)O` [L-lysine component, L-lysine], the “tolerability of subcutaneous injection” value in the data set on Beagle dogs is “well tolerated”.

Consider `[K+]` [Potassium], for which, in data set [1], the Filterability result is reported as “no”, the Crystallinity entry is “yes” and the Polymorphic behavior result is on record as “Polymorphic on XRPD”.

Take `CCCCCCCC/C=C\CCCCCCCCOP(O)(O)=S.NCCN` [Rx100 Ethylenediamine salt]: in [1], the “Stability at high humidity” value is “stable at high humidity”, the Filterability result is “filterable”, the Crystallinity entry is “showed crystallinity” and the Polymorphic behavior result is given as “Creamy/oily on XRPD”. Also, in [1] (listed as Ethyldiamine), the Crystallinity entry was “yes” and the Filterability result is listed as “yes”.

As to `CCCCCCCC/C=C\CCCCCCCCOP(O)(O)=S.NCCCC[C@H](N)C(=O)O` [Rx100. L-Lysine Salt], the “Resulting Form” value in data set [2] is recorded as “Dissolved”.

Turning to `CCCCCCCC/C=C\CCCCCCCCOP(O)(O)=S.NCCCC[C@H](N)C(=O)O` [Rx100. L-Lysine salt], in [3], the “KF [Wt % water]” value is 1.8 Wt % water, the “Optical Microscopy” value is reported as “Birefringent”, the “TGA [% Wt. loss]” value was 1.1 % Wt. loss and the “XRPD [Form]” value was “Crystalline”. The “Moisture Sorption [Wt. % at 95% RH]” value in data set [4] was 20.6 Wt. %.

Turning to `CCCCCCCC/C=C\CCCCCCCCOP([O-])(O)=S.[Na+]` [Sodium], in data set [1], the Filterability entry is “no”, the Crystallinity entry was “yes” and the Polymorphic behavior result was “Polymorphic on XRPD”.

With `NC(CO)(CO)CO` [Tromethamine], in data set [1], the Filterability result is listed as “no”, the Crystallinity result is reported as “no” and the Polymorphic behavior result is given as “Oily on XRPD”. Moreover, in data set [1] (stage 1, third round, 2.1 eq of base, listed as 4-16), the “RH > 90% overnight (XRPD pattern or state after exposure)” value was 5-A + Tris.

In the case of Ca(OH)2, the “XRPD, wet” value in data set [1] (Ethyl acetate) and in data set [1] (IPA:water (1:1)) was “Calcium” in each case.

With L-Arginine, in data set [1], the Filterability entry is “yes*”, the Crystallinity entry is on record as “yes” and the Polymorphic behavior entry was “Greasy on XRPD”.

With Piperazine, in data set [1], the Filterability result is given as “yes”, the Crystallinity result is listed as “yes”, the Polymorphic behavior result is listed as “Multiple patterns on XRPD” and the “Solid upon evaporation (Y/N)” value is listed as “Gel”. Besides, the “All solvents were evaporated” value in data set [1] (solvent MeOH:Water [9:1]) is given as “Greasy”. Also, the “All solvents were evaporated” value in data set [1] (solvent MeOH) was “Greasy”.

For the compound “lysophosphatidic acid [LPA, reference compound]”, the “Emax (% of LPA)” value was 100 % of LPA in data set [5]; 12% in the data set with Control CHO; 100 % of LPA in data set [6]; 100 % of LPA at Human LPA1 (LPA1 DKO MEF, human); 100 % of LPA on Human LPA1 (LPA1 RH7777, human); 100 % of LPA in data set [7]. Moreover, the EC50 came to 4.4 nM in data set [5] (read-out: EC50); 605 nM with Control CHO (read-out: EC50); 1.7 nM in [6] (read-out: EC50); 354 nM at Human LPA1 (LPA1 DKO MEF, human); 28 nM at Human LPA1 (LPA1 RH7777, human); 1.3 nM in data set [7] (read-out: EC50).

Source of the values: patent publication US20170226139A1, “CRYSTALLINE SALTS OF (Z)-O-OCTADEC-9-EN-1-YL O,O-DIHYDROGEN PHOSPHOROTHIOATE” (priority 2013, published 2017).
